In patent US20250163104A1, “MACROCYCLIC IMMUNOMODULATORS” (priority 2021, published 2025):
*1 amine or outer side, *2 acyl side, *3 side chain or, on linkers, in order; H or OH if unused. Where a SMILES comes first, the peptide text is derived from it. Bridges are numbered along the chain shown (N, C = ends). [ ]: non-standard residue; d: D form. The star is where a group is joined. Bip = N[C@@H](Cc1ccc(-c2ccccc2)cc1)C(=O)O; Phe(3-Me) = Cc1cccc(C[C@H](N)C(=O)O)c1; γGlu = O=C(O)[C@H](CCC(=O)[*:2])N[*:1]; Cha = N[C@@H](CC1CCCCC1)C(=O)O; Carboxymethyl = O=C(O)C*; Orn = NCCC[C@H](N)C(=O)O; Pra = C#CC[C@H](N)C(=O)O; Dab = NCC[C@H](N)C(=O)O; Dap = NC[C@H](N)C(=O)O; Propargyl = C#CC*

Molecular target: T1, human PD-1 / PD-L1-Ig binding on Jurkat cell line over-expressing human PD-1 (Jurkat-PD-1) (Homo sapiens, UniProt Q15116)
T1 construct: expressed in transfected cells; host or cells: Jurkat
Test: Jurkat-PD-1 Cell Binding High-Content Screening Assay (CBA)
Type: cell-based
Conditions: Jurkat-PD-1 cells, PE-labeled PD-L1-Ig 20 nM final; read-out: Jurkat HPD1_PDL1 IC50
Procedure, shortened: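 Binding of fluorescent PD-L1-Ig (phycoerythrin linked via the Ig tag, 20 nM final) to PD-1-overexpressing Jurkat cells was imaged after a 2 h, 37° C compound pretreatment and 1 hour ligand incubation.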

T1 sequence (Q15116 25-288): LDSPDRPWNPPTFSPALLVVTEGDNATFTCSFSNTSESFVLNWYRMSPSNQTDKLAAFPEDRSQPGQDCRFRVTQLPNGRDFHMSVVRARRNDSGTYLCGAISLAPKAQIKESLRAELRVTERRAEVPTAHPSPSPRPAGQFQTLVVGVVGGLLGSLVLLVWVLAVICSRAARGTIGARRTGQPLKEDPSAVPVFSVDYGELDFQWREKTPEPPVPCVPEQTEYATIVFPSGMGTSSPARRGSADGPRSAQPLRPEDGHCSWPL

Compound | IC50
Cc1cccc(C[C@@H]2NC(=O)[C@H](CC(=O)O)NC(=O)[C@H](Cc3ccc(OCC(=O)O)cc3)NC(=O)[C@H]([C@@H](C)O)NC(=O)CSC[C@@H](C(N)=O)NC(=O)[C@H](CCC(N)=O)NC(=O)[C@H](C(C)C)NC(=O)[C@H](CC3CCCCC3)NC(=O)[C@H](CCN)NC(=O)[C@@H](CC(C)C)NC(=O)[C@H](CCCN)NC(=O)[C@H](Cc3ccc(OCC(=O)O)cc3)NC(=O)[C@H](Cc3ccc(-c4ccccc4)cc3)NC(=O)[C@H](Cc3ccc(OCC(=O)O)cc3)NC2=O)c1 [Compound 1799] ({CH2CO}-TY(Carboxymethyl)D[Phe(3-Me)]Y(Carboxymethyl)[Bip]Y(Carboxymethyl)[Orn][dL][Dab][Cha]VQC-NH2; thioether N-14) | 33.5 nM
Cc1cccc(C[C@@H]2NC(=O)[C@H](CC(=O)O)NC(=O)[C@H](Cc3ccc(OCC(=O)O)cc3)NC(=O)[C@H]([C@@H](C)O)NC(=O)CSC[C@@H](C(N)=O)NC(=O)[C@H]([C@@H](C)O)NC(=O)[C@H](C(C)C)NC(=O)[C@H](CC3CCCCC3)NC(=O)[C@H](CCN)NC(=O)[C@@H](CC(C)C)NC(=O)[C@H](CCCN)NC(=O)[C@H](Cc3ccc(OCC(=O)O)cc3)NC(=O)[C@H](Cc3ccc(-c4ccccc4)cc3)NC(=O)[C@H](Cc3ccc(OCC(=O)O)cc3)NC2=O)c1 [Compound 1800] ({CH2CO}-TY(Carboxymethyl)D[Phe(3-Me)]Y(Carboxymethyl)[Bip]Y(Carboxymethyl)[Orn][dL][Dab][Cha]VTC-NH2; thioether N-14) | 17.3 nM
Cc1cccc(C[C@@H]2NC(=O)[C@H](CC(=O)O)NC(=O)[C@H](Cc3ccc(OCC(=O)O)cc3)NC(=O)[C@H]([C@@H](C)O)NC(=O)CSC[C@@H](C(N)=O)NC(=O)[C@H](CCC(=O)O)NC(=O)[C@H](C(C)C)NC(=O)[C@H](CC3CCCCC3)NC(=O)[C@H](CCN)NC(=O)[C@@H](CC(C)C)NC(=O)[C@H](CCCN)NC(=O)[C@H](Cc3ccc(OCC(=O)O)cc3)NC(=O)[C@H](Cc3ccc(-c4ccccc4)cc3)NC(=O)[C@H](Cc3ccc(OCC(=O)O)cc3)NC2=O)c1 [Compound 1801] ({CH2CO}-TY(Carboxymethyl)D[Phe(3-Me)]Y(Carboxymethyl)[Bip]Y(Carboxymethyl)[Orn][dL][Dab][Cha]VEC-NH2; thioether N-14) | 84.4 nM
Cc1cccc(C[C@@H]2NC(=O)[C@H](CC(=O)O)NC(=O)[C@H](Cc3ccc(OCC(=O)O)cc3)NC(=O)[C@H]([C@@H](C)O)NC(=O)CSC[C@@H](C(N)=O)NC(=O)[C@H](CCCN)NC(=O)[C@H](C(C)C)NC(=O)[C@H](CC3CCCCC3)NC(=O)[C@H](CCN)NC(=O)[C@@H](CC(C)C)NC(=O)[C@H](CCCN)NC(=O)[C@H](Cc3ccc(OCC(=O)O)cc3)NC(=O)[C@H](Cc3ccc(-c4ccccc4)cc3)NC(=O)[C@H](Cc3ccc(OCC(=O)O)cc3)NC2=O)c1 [Compound 1802] ({CH2CO}-TY(Carboxymethyl)D[Phe(3-Me)]Y(Carboxymethyl)[Bip]Y(Carboxymethyl)[Orn][dL][Dab][Cha]V[Orn]C-NH2; thioether N-14) | 9.5 nM
C#CC[C@H](NC(=O)[C@H](CCC(=O)O)NC(=O)[C@@H]1CSCC(=O)N[C@@H](CN)C(=O)N[C@@H](Cc2ccc(OCC(=O)O)cc2)C(=O)N[C@@H](CC(=O)O)C(=O)N[C@@H](Cc2cccc(C)c2)C(=O)N[C@@H](Cc2ccc(OCC(=O)O)cc2)C(=O)N[C@@H](Cc2ccc(-c3ccccc3)cc2)C(=O)N[C@@H](Cc2ccc(OCC(=O)O)cc2)C(=O)N[C@@H](CCCN)C(=O)N[C@H](CC(C)C)C(=O)N[C@@H](CCN)C(=O)N[C@@H](CC2CCCCC2)C(=O)N[C@@H](C(C)C)C(=O)N[C@@H]([C@@H](C)O)C(=O)N1)C(N)=O [Compound 1803] ({CH2CO}-[Dap]Y(Carboxymethyl)D[Phe(3-Me)]Y(Carboxymethyl)[Bip]Y(Carboxymethyl)[Orn][dL][Dab][Cha]VTCE[Pra]-NH2; thioether N-14) | 24.7 nM
C#CC[C@H](NC(=O)CC[C@H](NC(=O)[C@@H]1CSCC(=O)N[C@@H](CN)C(=O)N[C@@H](Cc2ccc(OCC(=O)O)cc2)C(=O)N[C@@H](CC(=O)O)C(=O)N[C@@H](Cc2cccc(C)c2)C(=O)N[C@@H](Cc2ccc(OCC(=O)O)cc2)C(=O)N[C@@H](Cc2ccc(-c3ccccc3)cc2)C(=O)N[C@@H](Cc2ccc(OCC(=O)O)cc2)C(=O)N[C@@H](CCCN)C(=O)N[C@H](CC(C)C)C(=O)N[C@@H](CCN)C(=O)N[C@@H](CC2CCCCC2)C(=O)N[C@@H](C(C)C)C(=O)N[C@@H]([C@@H](C)O)C(=O)N1)C(=O)O)C(N)=O [Compound 1804] ({CH2CO}-[Dap]Y(Carboxymethyl)D[Phe(3-Me)]Y(Carboxymethyl)[Bip]Y(Carboxymethyl)[Orn][dL][Dab][Cha]VTC[γGlu][Pra]-NH2; thioether N-14) | 6.6 nM
C#CC[C@H](NC(=O)CC[C@H](NC(=O)[C@H](C)NC(=O)[C@@H]1CSCC(=O)N[C@@H](CN)C(=O)N[C@@H](Cc2ccc(OCC(=O)O)cc2)C(=O)N[C@@H](CC(=O)O)C(=O)N[C@@H](Cc2cccc(C)c2)C(=O)N[C@@H](Cc2ccc(OCC(=O)O)cc2)C(=O)N[C@@H](Cc2ccc(-c3ccccc3)cc2)C(=O)N[C@@H](Cc2ccc(OCC(=O)O)cc2)C(=O)N[C@@H](CCCN)C(=O)N[C@H](CC(C)C)C(=O)N[C@@H](CCN)C(=O)N[C@@H](CC2CCCCC2)C(=O)N[C@@H](C(C)C)C(=O)N[C@@H]([C@@H](C)O)C(=O)N1)C(=O)O)C(N)=O [Compound 1807] ({CH2CO}-[Dap]Y(Carboxymethyl)D[Phe(3-Me)]Y(Carboxymethyl)[Bip]Y(Carboxymethyl)[Orn][dL][Dab][Cha]VTCA[γGlu][Pra]-NH2; thioether N-14) | 4.6 nM

Further lines, results first:

IC50 | Compound
3.2 nM | C#CCOc1ccc(C[C@@H]2NC(=O)[C@H](Cc3cccc(C)c3)NC(=O)[C@H](CC(=O)O)NC(=O)[C@H](Cc3ccc(OCC(=O)O)cc3)NC(=O)[C@H](CN)NC(=O)CSC[C@@H](C(=O)N[C@@H](CCN)C(N)=O)NC(=O)[C@H](CCC(=O)O)NC(=O)[C@H](C(C)C)NC(=O)[C@H](CC3CCCCC3)NC(=O)[C@H](CCN)NC(=O)[C@@H](CC(C)C)NC(=O)[C@H](CCCN)NC(=O)[C@H](Cc3ccc(OCC(=O)O)cc3)NC(=O)[C@H](Cc3ccc(-c4ccccc4)cc3)NC2=O)cc1 [Compound 1812] ({CH2CO}-[Dap]Y(Carboxymethyl)D[Phe(3-Me)]Y(Propargyl)[Bip]Y(Carboxymethyl)[Orn][dL][Dab][Cha]VEC[Dab]-NH2; thioether N-14)
0.7 nM | C#CCOc1ccc(C[C@@H]2NC(=O)[C@H](C(C)C)NC(=O)[C@H](CC3CCCCC3)NC(=O)[C@H](CCN)NC(=O)[C@@H](CC(C)C)NC(=O)[C@H](CCCN)NC(=O)[C@H](Cc3ccc(OCC(=O)O)cc3)NC(=O)[C@H](Cc3ccc(-c4ccccc4)cc3)NC(=O)[C@H](Cc3ccc(OCC(=O)O)cc3)NC(=O)[C@H](Cc3cccc(C)c3)NC(=O)[C@H](CC(=O)O)NC(=O)[C@H](Cc3ccc(OCC(=O)O)cc3)NC(=O)[C@H](Cc3cnc[nH]3)NC(=O)CSC[C@@H](C(=O)N[C@@H](CCN)C(N)=O)NC2=O)cc1 [Compound 1813] ({CH2CO}-HY(Carboxymethyl)D[Phe(3-Me)]Y(Carboxymethyl)[Bip]Y(Carboxymethyl)[Orn][dL][Dab][Cha]VY(Propargyl)C[Dab]-NH2; thioether N-14)
23 nM | C#CCOc1ccc(C[C@@H]2NC(=O)[C@H](C(C)C)NC(=O)[C@H](CC3CCCCC3)NC(=O)[C@H](CCN)NC(=O)[C@@H](CC(C)C)NC(=O)[C@H](CCCN)NC(=O)[C@H](Cc3ccc(OCC(=O)O)cc3)NC(=O)[C@H](Cc3ccc(-c4ccccc4)cc3)NC(=O)[C@H](Cc3ccc(OCC(=O)O)cc3)NC(=O)[C@H](Cc3cccc(C)c3)NC(=O)[C@H](CC(=O)O)NC(=O)[C@H](Cc3ccc(OCC(=O)O)cc3)NC(=O)[C@H](CCN)NC(=O)CSC[C@@H](C(=O)N[C@@H](CCN)C(N)=O)NC2=O)cc1 [Compound 1814] ({CH2CO}-[Dab]Y(Carboxymethyl)D[Phe(3-Me)]Y(Carboxymethyl)[Bip]Y(Carboxymethyl)[Orn][dL][Dab][Cha]VY(Propargyl)C[Dab]-NH2; thioether N-14)
22.2 nM | C#CCOc1ccc(C[C@@H]2NC(=O)[C@H](CCCNC(=N)N)NC(=O)CSC[C@@H](C(=O)N[C@@H](CCN)C(N)=O)NC(=O)[C@H](CCC(=O)O)NC(=O)[C@H](C(C)C)NC(=O)[C@H](CC3CCCCC3)NC(=O)[C@H](CCN)NC(=O)[C@@H](CC(C)C)NC(=O)[C@H](CCCN)NC(=O)[C@H](Cc3ccc(OCC(=O)O)cc3)NC(=O)[C@H](Cc3ccc(-c4ccccc4)cc3)NC(=O)[C@H](Cc3ccc(OCC(=O)O)cc3)NC(=O)[C@H](Cc3cccc(C)c3)NC(=O)[C@H](CC(=O)O)NC2=O)cc1 [Compound 1815] ({CH2CO}-RY(Propargyl)D[Phe(3-Me)]Y(Carboxymethyl)[Bip]Y(Carboxymethyl)[Orn][dL][Dab][Cha]VEC[Dab]-NH2; thioether N-14)
11.9 nM | C#CCOc1ccc(C[C@@H]2NC(=O)[C@H](C(C)C)NC(=O)[C@H](CC3CCCCC3)NC(=O)[C@H](CCN)NC(=O)[C@@H](CC(C)C)NC(=O)[C@H](CCCN)NC(=O)[C@H](Cc3ccc(OCC(=O)O)cc3)NC(=O)[C@H](Cc3ccc(-c4ccccc4)cc3)NC(=O)[C@H](Cc3ccc(OCC(=O)O)cc3)NC(=O)[C@H](Cc3cccc(C)c3)NC(=O)[C@H](CC(=O)O)NC(=O)[C@H](Cc3ccc(OCC(=O)O)cc3)NC(=O)[C@H](CN)NC(=O)CSC[C@@H](C(=O)N[C@@H](CCN)C(N)=O)NC2=O)cc1 [Compound 1816] ({CH2CO}-[Dap]Y(Carboxymethyl)D[Phe(3-Me)]Y(Carboxymethyl)[Bip]Y(Carboxymethyl)[Orn][dL][Dab][Cha]VY(Propargyl)C[Dab]-NH2; thioether N-14)
